Data: the NIST ThermoML archive (doi:10.1021/je034022n)
Numbers after ± are expanded uncertainties.

Conditions: 101.33 kPa, Liquid

SMILES	mass density (298.15 K)	speed of sound (298.15 K)	mass density (303.15 K)	mass density (308.15 K)	speed of sound (308.15 K)	mass density (313.15 K)
Cc1ccc(C)cc1 [1,4-dimethylbenzene]	856.62 ± 1.4 kg/m3	1308 ± 6 m/s	852.25 ± 1.4 kg/m3	847.88 ± 1.5 kg/m3	1276 ± 6 m/s	843.64 ± 1.5 kg/m3
CCCCOCCO [2-butoxyethan-1-ol]	896.25 ± 1.2 kg/m3	1304 ± 6 m/s	892.03 ± 1.2 kg/m3	888.91 ± 1.2 kg/m3	1285 ± 6 m/s	883.4 ± 1.2 kg/m3
c1ccccc1 [benzene]	873.61 ± 1.3 kg/m3	1299 ± 6 m/s	868.29 ± 1.3 kg/m3	862.96 ± 1.4 kg/m3	1260 ± 5 m/s	857.97 ± 1.4 kg/m3
C=C(C)C(=O)OC [methyl methacrylate]	937.63 ± 0.92 kg/m3	1181 ± 5 m/s	931.74 ± 0.96 kg/m3	925.74 ± 1 kg/m3	1153 ± 5 m/s	920.26 ± 1 kg/m3
Cc1ccccc1 [toluene]	862.2 ± 1.4 kg/m3	1304 ± 6 m/s	857.55 ± 1.4 kg/m3	852.86 ± 1.4 kg/m3	1262 ± 5 m/s	848.16 ± 1.5 kg/m3
